Tested on: subjects with advanced malignancies
Assay: Phase 1 dose escalation: toxicity, safety and tolerability (DLT, MAD, RP2D, AEs)
[1] = Dose level 0.33 mg/m^2, 1 subject
[2] = Dose level 0.66 mg/m^2, 1 subject
[3] = Dose level 1.32 mg/m^2, 1 subject
[4] = Dose level 2.59 mg/m^2, 4 subjects
[5] = Dose level 3.63 mg/m^2, 8 subjects
[6] = Dose level 5.08 mg/m^2, 3 subjects
[7] = Dose level 7.11 mg/m^2, 7 subjects
[8] = Dose level 10 mg/m^2, 3 subjects
[9] = Dose level 12 mg/m^2, 11 subjects

Procedure: Subjects continued on treatment until there was disease progression, unacceptable toxicity, or the subject withdrew consent. The trial employed an accelerated titration design [16] starting at a dose of 0.33 mg/m^2 (one-sixth of the highest nontoxic dose in dogs).
the dose was doubled in sequential subjects until a DLT was observed or a subject experienced grade 2 toxicity [16]. In the case of an observed grade 2 toxicity, a second subject was enrolled at the same dose level. If the second subject also experienced a grade 2 toxicity, 2 additional subjects were accrued at that dose level for a total of 4 subjects. […] Each subject was allocated to only a single dose level of drug. Dose delay or modification was permitted based on laboratory and clinical assessment performed on the day of treatment.
Dose-limiting toxicities were determined during the first cycle for each dose level. A DLT was defined as any grade 3 or 4 hematologic toxicity lasting for at least 1 week, or as any grade 3 or 4 nonhematologic toxicity. […] Normal alkaline phosphatase level (< grade 1) at screening that rose to greater than or equal to grade 3; grade 1 or 2 alkaline phosphatase level at screening that rose to grade 4; grade 1 or 2 aspartate aminotransferase (AST) and/or alanine aminotransferase (ALT) levels at screening that doubled from baseline to become greater than or equal to grade 3; and any other abnormal nonhematology laboratory value greater than or equal to grade 3 that required medical intervention to treat, led to hospitalization, or persisted for at least 1 week were also considered DLTs.
Adverse events were graded based on the National Cancer Institute Common Terminology Criteria for Adverse Events (NCI CTCAE version 3.0) and were coded using the Medical Dictionary for Regulatory Activities (MedDRA version 13.0).

CCc1cnn2c(NCc3ccc[n+]([O-])c3)cc(N3CCCC[C@H]3CCO)nc12 [dinaciclib]
TEAE: Abdominal distension (14 mg/m^2 (n = 5), Grade 3–4): 0 n (%) | TEAE: Abdominal pain (14 mg/m^2 (n = 5), Grade 3–4): 0 n (%) | TEAE: Anemia (14 mg/m^2 (n = 5), Grade 3–4): 1 (20) n (%) | TEAE: Asthenia (14 mg/m^2 (n = 5), Grade 3–4): 1 (20) n (%) | TEAE: Back pain (14 mg/m^2 (n = 5), Grade 3–4): 0 n (%) | TEAE: Constipation (14 mg/m^2 (n = 5), Grade 3–4): 0 n (%) | TEAE: Cough (14 mg/m^2 (n = 5), Grade 3–4): 0 n (%) | TEAE: Decreased appetite (14 mg/m^2 (n = 5), Grade 3–4): 0 n (%) | TEAE: Dehydration (14 mg/m^2 (n = 5), Grade 3–4): 0 n (%) | TEAE: Diarrhea (14 mg/m^2 (n = 5), Grade 3–4): 0 n (%) | TEAE: Dizziness (14 mg/m^2 (n = 5), Grade 3–4): 1 (20) n (%) | TEAE: Dyspnea (14 mg/m^2 (n = 5), Grade 3–4): 1 (20) n (%) | TEAE: Fatigue (14 mg/m^2 (n = 5), Grade 3–4): 0 n (%) | TEAE: Flatulence (14 mg/m^2 (n = 5), Grade 3–4): 0 n (%) | TEAE: Hyperbilirubinemia (14 mg/m^2 (n = 5), Grade 3–4): 1 (20) n (%) | TEAE: Hyperglycemia (14 mg/m^2 (n = 5), Grade 3–4): 1 (20) n (%) | TEAE: Hyperuricemia (14 mg/m^2 (n = 5), Grade 3–4): 1 (20) n (%) | TEAE: Hypokalemia (14 mg/m^2 (n = 5), Grade 3–4): 0 n (%) | TEAE: Hypophosphatemia (14 mg/m^2 (n = 5), Grade 3–4): 0 n (%) | TEAE: Increased ALP (14 mg/m^2 (n = 5), Grade 3–4): 1 (20) n (%) | TEAE: Increased ALT (14 mg/m^2 (n = 5), Grade 3–4): 0 n (%) | TEAE: Increased AST (14 mg/m^2 (n = 5), Grade 3–4): 0 n (%) | TEAE: Nausea (14 mg/m^2 (n = 5), Grade 3–4): 1 (20) n (%) | TEAE: Neutropenia (14 mg/m^2 (n = 5), Grade 3–4): 2 (40) n (%) | TEAE: Peripheral edema (14 mg/m^2 (n = 5), Grade 3–4): 0 n (%) | TEAE: Pyrexia (14 mg/m^2 (n = 5), Grade 3–4): 0 n (%) | TEAE: Subjects with any AE (14 mg/m^2 (n = 5), Grade 3–4): 5 (100) n (%) | TEAE: Urinary tract infection (14 mg/m^2 (n = 5), Grade 3–4): 0 n (%) | TEAE: Vomiting (14 mg/m^2 (n = 5), Grade 3–4): 1 (20) n (%) | TEAE: Weight decreased (14 mg/m^2 (n = 5), Grade 3–4): 0 n (%) | maximum administered dose (MAD) (2-hour IV infusion on days 1, 8, 15 of a 28-day cycle): 14 mg/m^2 | TEAE: Abdominal distension (All doses (N = 48), All grades): 5 (10) n (%) | TEAE: Abdominal pain (All doses (N = 48), All grades): 8 (17) n (%) | TEAE: Anemia (All doses (N = 48), All grades): 19 (40) n (%) | TEAE: Asthenia (All doses (N = 48), All grades): 11 (23) n (%) | TEAE: Back pain (All doses (N = 48), All grades): 11 (23) n (%) | TEAE: Constipation (All doses (N = 48), All grades): 11 (23) n (%) | TEAE: Cough (All doses (N = 48), All grades): 5 (10) n (%) | TEAE: Decreased appetite (All doses (N = 48), All grades): 14 (29) n (%) | TEAE: Diarrhea (All doses (N = 48), All grades): 6 (13) n (%) | TEAE: Dizziness (All doses (N = 48), All grades): 5 (10) n (%) | TEAE: Dyspnea (All doses (N = 48), All grades): 7 (15) n (%) | TEAE: Fatigue (All doses (N = 48), All grades): 14 (29) n (%) | TEAE: Flatulence (All doses (N = 48), All grades): 6 (13) n (%) | TEAE: Hyperglycemia (All doses (N = 48), All grades): 7 (15) n (%) | TEAE: Hyperuricemia (All doses (N = 48), All grades): 5 (10) n (%) | TEAE: Hypokalemia (All doses (N = 48), All grades): 6 (13) n (%) | TEAE: Hypophosphatemia (All doses (N = 48), All grades): 6 (13) n (%) | TEAE: Increased ALP (All doses (N = 48), All grades): 8 (17) n (%) | TEAE: Increased ALT (All doses (N = 48), All grades): 6 (13) n (%) | TEAE: Increased AST (All doses (N = 48), All grades): 8 (17) n (%) | TEAE: Nausea (All doses (N = 48), All grades): 19 (40) n (%) | TEAE: Neutropenia (All doses (N = 48), All grades): 8 (17) n (%) | TEAE: Peripheral edema (All doses (N = 48), All grades): 7 (15) n (%) | TEAE: Pyrexia (All doses (N = 48), All grades): 8 (17) n (%) | TEAE: Subjects with any AE (All doses (N = 48), All grades): 47 (98) n (%) | TEAE: Urinary tract infection (All doses (N = 48), All grades): 12 (25) n (%) | TEAE: Vomiting (All doses (N = 48), All grades): 11 (23) n (%) | TEAE: Weight decreased (All doses (N = 48), All grades): 5 (10) n (%) | TEAE: Abdominal distension (All doses (N = 48), Grade 3–4): 0 n (%) | TEAE: Abdominal pain (All doses (N = 48), Grade 3–4): 2 (4) n (%) | TEAE: Anemia (All doses (N = 48), Grade 3–4): 5 (10) n (%) | TEAE: Asthenia (All doses (N = 48), Grade 3–4): 3 (6) n (%) | TEAE: Back pain (All doses (N = 48), Grade 3–4): 3 (6) n (%) | TEAE: Constipation (All doses (N = 48), Grade 3–4): 0 n (%) | TEAE: Cough (All doses (N = 48), Grade 3–4): 0 n (%) | TEAE: Decreased appetite (All doses (N = 48), Grade 3–4): 0 n (%) | TEAE: Dehydration (All doses (N = 48), Grade 3–4): 0 n (%) | TEAE: Diarrhea (All doses (N = 48), Grade 3–4): 0 n (%) | TEAE: Dyspnea (All doses (N = 48), Grade 3–4): 3 (6) n (%) | TEAE: Fatigue (All doses (N = 48), Grade 3–4): 2 (4) n (%) | TEAE: Flatulence (All doses (N = 48), Grade 3–4): 0 n (%) | TEAE: Hyperbilirubinemia (All doses (N = 48), Grade 3–4): 5 (10) n (%) | TEAE: Hyperglycemia (All doses (N = 48), Grade 3–4): 4 (8) n (%) | TEAE: Hyperuricemia (All doses (N = 48), Grade 3–4): 4 (8) n (%) | TEAE: Hypokalemia (All doses (N = 48), Grade 3–4): 2 (4) n (%) | TEAE: Hypophosphatemia (All doses (N = 48), Grade 3–4): 5 (10) n (%) | TEAE: Increased ALP (All doses (N = 48), Grade 3–4): 2 (4) n (%) | TEAE: Increased AST (All doses (N = 48), Grade 3–4): 2 (4) n (%) | TEAE: Nausea (All doses (N = 48), Grade 3–4): 1 (2) n (%) | TEAE: Neutropenia (All doses (N = 48), Grade 3–4): 5 (10) n (%) | TEAE: Peripheral edema (All doses (N = 48), Grade 3–4): 0 n (%) | TEAE: Pyrexia (All doses (N = 48), Grade 3–4): 0 n (%) | TEAE: Subjects with any AE (All doses (N = 48), Grade 3–4): 29 (60) n (%) | TEAE: Urinary tract infection (All doses (N = 48), Grade 3–4): 0 n (%) | TEAE: Weight decreased (All doses (N = 48), Grade 3–4): 0 n (%) | DLT [1]: None | Subjects with DLT in cycle 1 [1]: 0 | DLT [2]: None | Subjects with DLT in cycle 1 [2]: 0 | DLT [3]: None | Subjects with DLT in cycle 1 [3]: 0 | DLT [4]: None | Subjects with DLT in cycle 1 [4]: 0 | DLT [5]: Hypokalemia, hypocalcemia, hypophosphatemia | Subjects with DLT in cycle 1 [5]: 1 | DLT [6]: None | Subjects with DLT in cycle 1 [6]: 0 | DLT [7]: Deep vein thrombosis | Subjects with DLT in cycle 1 [7]: 1 | DLT [8]: None | Subjects with DLT in cycle 1 [8]: 0 | DLT [9]: Septic shock | Subjects with DLT in cycle 1 [9]: 1 | DLT (Dose level 14 mg/m^2, 5 subjects): Orthostatic hypotension (1), elevated uric acid (1)
